# Experimental data from patent publication US12655150B2 (Cedilla Therapeutics, Inc., priority 2021, dated 2026).
# Test system: NCI-H226
# Experiment: 72H TEAD Proliferation Assay (Cell Titer Glo 2.0)
# Type: cell-based
# Conditions: Homo sapiens, NCI-H226, 72 h, CTG 2.0, cell line not given (NCI-H226 responsive, NCI-H28 non-responsive)
# Method: 72H TEAD Proliferation Assay.
# The effect of TEAD inhibition on cell proliferation was assayed using Cell Titer Glo (CTG) 2.0 to measure response in mesothelioma cell lines NCI-H226 (ATCC, #CRL-5826) and NCI-H28 (ATCC, #CRL-5820).
# The 72H TEAD Proliferation assay utilizes Cell Titer-Glo 2.0 (Promega, #G9243) to measure the proliferation of cells in the presence or absence of compound. Cell Titer-Glo 2.0 determines the amount of viable cells by quantifying ATP (an indication of metabolically active cells). It utilizes the conversion of Luciferin to Oxyluciferin and a luminescent signal with the use of ATP to report the quantity of viable cells in culture. Within cells that are continually growing, ATP is being synthesized to meet their metabolic demands, meanwhile the opposite is true for cells that are dying or slowing down their proliferation and either no longer using ATP or are using less, respectively. The NF2-deficient NCI-H226 has been genetically validated as a cell line that is sensitive to TEAD inhibition. The NF2-wild type NCI-H28 has been genetically validated as a cell line that is not sensitive to TEAD inhibition and grows independently of TEAD activity.
# Compounds were screened against the responsive NCI-H226 cell line to assess the compounds' ability to inhibit TEAD and cell growth. Compounds were also screened against the non-responsive NCI-H28 cell line to ascertain whether the inhibition of cell growth was due to inhibition of the target TEAD or whether the inhibition was due to off-target cytotoxicity.
# • 1) Assay ready plates (ARPs) were prepared by Echo acoustic liquid handler. […] After CTG addition, plates were placed on shaker at 800 RPM for 15 minutes at room temperature and kept in the dark. Luminescence was measured using EnVision multilabel plate reader with ultra-sensitive detection module. • 9) Data Analysis: First background luminescence (no CTG wells) was subtracted from luminescence reading of all wells, then TO luminescence was subtracted from T72 luminescence. To compare anti-proliferative effect of compounds, GI50 was obtained by fitting dose response curves with nonlinear regression curve fit.
row,SMILES,GI50 [µM]
1,"O=C(O)c1ccc2c(c1)nc(N1CCC3(CC1)CC(F)(F)C3)c1cccn12 [I-32, 4-(2,2-Difluoro-7-azaspiro [3.5]nonan-7-yl) pyrrolo[1,2-a] quinoxaline-7-carboxylic acid]",1 to 5
2,"CC1(C)CC2(CCN(c3nc4cc(C(=O)O)ccc4n4cccc34)CC2)CO1 [I-34, 4-(3,3-Dimethyl-2-oxa-8-azaspiro [4.5]decan-8-yl) pyrrolo[1,2-a] quinoxaline-7-carboxylic acid]",> 10
3,"O=C(O)c1ccc2c(c1)nc(N1CCC3(CCOC3)CC1)c1cccn12 [I-35, 4-(2-Oxa-8-azaspiro[4.5]decan-8-yl)pyrrolo[1,2-a]quinoxaline-7-carboxylic acid]",1 to 5
4,"O=C(O)c1ccc2c(c1)nc(N1CCC(F)(F)CC1)c1cccn12 [I-39, 4-(4,4-Difluoropiperidin-1-yl) pyrrolo[1,2-a]quinoxaline-7-carboxylic acid]",> 10
5,"O=C(O)c1ccc2c(c1)nc(-c1ccc(F)cc1F)c1cccn12 [I-44, 4-(2,4-Difluorophenyl)pyrrolo[1,2-a]quinoxaline-7-carboxylic acid]",> 10
6,"Cc1ccc(-c2nc3cc(C(=O)O)ccc3n3cccc23)cc1 [I-45, 4-(p-Tolyl)pyrrolo[1,2-a]quinoxaline-7-carboxylic acid]",> 10
7,"O=C(O)c1ccc2c(c1)nc(-c1ccncc1)c1cccn12 [I-47, 4-(Pyridin-4-yl)pyrrolo[1,2-a]quinoxaline-7-carboxylic acid]",> 10
8,"CC(C)(C)c1ccc(-c2nc3cc(C(=O)O)ccc3n3cccc23)c(F)c1 [I-49, 4-(4-(tert-Butyl)-2-fluorophenyl)pyrrolo[1,2-a]quinoxaline-7-carboxylic acid]",> 10
9,"O=C(O)c1ccc2c(c1)nc(-c1ccc(C(F)(F)F)cc1F)c1cccn12 [I-50, 4-(2-fluoro-4-(trifluoromethyl)phenyl) pyrrolo[1,2-a] quinoxaline-7-carboxylic acid]",≤ 1
10,"O=C(O)c1ccc2c(c1)nc(-c1ccc(C(F)(F)F)cc1Cl)c1cccn12 [I-53, 4-(2-Chloro-4-(trifluoromethyl)phenyl)pyrrolo[1,2-a]quinoxaline-7-carboxylic acid]",1 to 5
11,"O=C(O)c1ccc2c(c1)nc(N1CCC3(CC1)CC3)c1nccn12 [I-56, 4-(6-Azaspiro[2.5]octan-6-yl)imidazo[1,2-a]quinoxaline-7-carboxylic acid]",> 10
12,"CC(C)(C)c1ccc(-c2nc3cc(C(=O)O)ccc3n3ccnc23)cc1 [I-58, 4-(4-(tert-Butyl)phenyl)imidazo[1,2-a]quinoxaline-7-carboxylic acid]",5 to 10
13,"O=C(O)c1ccc2c(c1)nc(-c1ccc(C(F)(F)F)cc1F)c1nccn12 [I-60, 4-(2-Fluoro-4-(trifluoromethyl)phenyl)imidazo[1,2-a]quinoxaline-7-carboxylic acid]",1 to 5
14,"O=C(O)c1ccc2c(c1)nc(-c1ccccc1)c1nccn12 [I-63, 4-Phenylimidazo[1,2-a]quinoxaline-7-carboxylic acid]",> 10

# Other lines, results leading:
row,GI50 [µM],SMILES
1,5 to 10,"O=C(O)c1ccc2c(c1)nc(N1CCC3(CCC3)C1)c1cccn12 [I-33, 4-(6-Azaspiro[3.4]octan-6-yl)pyrrolo[1,2-a]quinoxaline-7-carboxylic acid]"
2,≤ 1,"O=C(O)c1ccc2c(c1)nc(N1CCC3(CC1)CC3(F)F)c1cccn12 [I-36, 4-(1,1-Difluoro-6-azaspiro[2.5]octan-6-yl)pyrrolo[1,2-a]quinoxaline-7-carboxylic acid]"
3,> 10,"CC(C)(C)C1CCN(c2nc3cc(C(=O)O)ccc3n3cccc23)CC1 [I-37, 4-(4-(tert-Butyl)piperidin-1-yl)pyrrolo[1,2-a]quinoxaline-7-carboxylic acid]"
4,> 10,"O=C(O)c1ccc2c(c1)nc(N1CCC(C(F)(F)F)CC1)c1cccn12 [I-38, 4-(4-(Trifluoromethyl)piperidin-1-yl)pyrrolo[1,2-a]quinoxaline-7-carboxylic acid]"
5,1 to 5,"O=C(O)c1ccc2c(c1)nc(N1CCN(C3CC3)CC1)c1cccn12 [I-40, 4-(4-Cyclopropylpiperazin-1-yl) pyrrolo[1,2-a]quinoxaline-7-carboxylic acid]"
6,≤ 1,"O=C(O)c1ccc2c(c1)nc(-c1ccc(C(F)(F)F)cc1)c1cccn12 [I-42, 4-(4-(Trifluoromethyl)phenyl)pyrrolo[1,2-a]quinoxaline-7-carboxylic acid]"
7,> 10,"O=C(O)c1ccc2c(c1)nc(-c1ccc(F)cc1)c1cccn12 [I-43, 4-(4-Fluorophenyl)pyrrolo[1,2-a]quinoxaline-7-carboxylic acid]"
8,> 10,"COc1ccc(-c2nc3cc(C(=O)O)ccc3n3cccc23)cc1 [I-46, 4-(4-Methoxyphenyl)pyrrolo[1,2-a]quinoxaline-7-carboxylic acid]"
9,> 10,"O=C(O)c1ccc2c(c1)nc(-c1ccc(Cl)cc1)c1cccn12 [I-48, 4-(4-Chlorophenyl)pyrrolo[1,2-a]quinoxaline-7-carboxylic acid]"
10,1 to 5,"O=C(O)c1ccc2c(c1)nc(-c1ccc(C(F)(F)F)nc1)c1cccn12 [I-51, 4-(6-(Trifluoromethyl)pyridin-3-yl)pyrrolo[1,2-a]quinoxaline-7-carboxylic acid]"
11,1 to 5,"Cc1cc(C(F)(F)F)ccc1-c1nc2cc(C(=O)O)ccc2n2cccc12 [I-52, 4-(2-Methyl-4-(trifluoromethyl)phenyl)pyrrolo[1,2-a]quinoxaline-7-carboxylic acid]"
12,5 to 10,"N#Cc1cc(C(F)(F)F)ccc1-c1nc2cc(C(=O)O)ccc2n2cccc12 [I-54, 4-(2-Cyano-4-(trifluoromethyl)phenyl)pyrrolo[1,2-a]quinoxaline-7-carboxylic acid]"
13,5 to 10,"COc1cc(C(F)(F)F)ccc1-c1nc2cc(C(=O)O)ccc2n2cccc12 [I-55, 4-(2-Methoxy-4-(trifluoromethyl)phenyl)pyrrolo[1,2-a]quinoxaline-7-carboxylic acid]"
14,> 10,"O=C(O)c1ccc2c(c1)nc(N1CCC3(CCCC3)CC1)c1nccn12 [I-57, 4-(8-Azaspiro[4.5]decan-8-yl)imidazo[1,2-a]quinoxaline-7-carboxylic acid]"
15,1 to 5,"CC(C)(C)c1ccc(-c2nc3cc(C(=O)O)ccc3n3ccnc23)c(F)c1 [I-59, 4-(4-(tert-Butyl)-2-fluorophenyl)imidazo[1,2-a]quinoxaline-7-carboxylic acid]"
16,1 to 5,"O=C(O)c1ccc2c(c1)nc(-c1ccc(C(F)(F)F)cc1)c1nccn12 [I-61, 4-(4-(Trifluoromethyl)phenyl)imidazo[1,2-a]quinoxaline-7-carboxylic acid]"
17,> 10,"O=C(O)c1ccc2c(c1)nc(-c1ccc(C3CCCCC3)cc1)c1nccn12 [I-62, 4-(4-Cyclohexylphenyl)imidazo[1,2-a]quinoxaline-7-carboxylic acid]"
18,> 10,"COc1ccc(-c2nc3cc(C(=O)O)ccc3n3ccnc23)cc1 [I-64, 4-(4-Methoxyphenyl)imidazo[1,2-a]quinoxaline-7-carboxylic acid]"
19,> 10,"CC(C)(C)c1cccc(-c2nc3cc(C(=O)O)ccc3n3ccnc23)c1 [I-65, 4-(3-(tert-Butyl)phenyl)imidazo[1,2-a]quinoxaline-7-carboxylic acid]"
20,5 to 10,"Cc1ccc(-c2nc3cc(C(=O)O)ccc3n3ccnc23)cc1 [I-66, 4-(p-Tolyl)imidazo[1,2-a]quinoxaline-7-carboxylic acid]"
